Source: patent publication US11160280B2, “Pesticial compounds” (BASF SE, priority 2017, dated 2021)

Assays:
Type in all cases: in vivo
[1] = test system: Silverleaf Whitefly (Bemisia argentifoli) (Adults); assay: Action on silverleaf whitefly (Bemisia argentifoli) adults on sprayed cotton plants; conditions: Bemisia argentifolii, 72 h, mortality 3 days after treatment, read-out: mortality in comparison with untreated controls
Method: Example B4: Action on Silverleaf Whitefly (Bemisia argentifoli) (Adults)
The active compounds were formulated by a Tecan liquid handler in 100% cyclohexanone as a 10,000 ppm solution supplied in tubes. The 10,000 ppm solution was serially diluted in 100% cyclohexanone to make interim solutions. These served as stock solutions for which final dilutions were made by the Tecan in 50% acetone:50% water (v/v) into 5 or 10 ml glass vials. A nonionic surfactant (Kinetic®) was included in the solution at a volume of 0.01% (v/v). The vials were then inserted into an automated electrostatic sprayer equipped with an atomizing nozzle for application to plants/insects.
Cotton plants at the cotyledon stage (one plant per pot) were sprayed by an automated electrostatic plant sprayer equipped with an atomizing spray nozzle. The plants were dried in the sprayer fume hood and then removed from the sprayer. Each pot was pla-ced into a plastic cup and about 10 to 12 whitefly adults (approximately 3-5 days old) were introduced. The insects were collected using an aspirator and a nontoxic Tygon® tubing connected to a barrier pipette tip. The tip, containing the collected insects, was then gently inserted into the soil containing the treated plant, allowing insects to crawl out of the tip to reach the foliage for feeding. Cups were covered with a reusable screened lid. Test plants were maintained in a growth room at about 25° C. and about 20-40% relative humidity for 3 days, avoiding direct exposure to fluorescent light (24 hour photoperiod) to prevent trapping of heat inside the cup. Mortality was assessed 3 days after treatment, compared to untreated control plants.

[2] = test system: tobacco budworm (Heliothis virescens); assay: Action on tobacco budworm (Heliothis virescens), eggs on insect diet in microtiter plates; conditions: 120 h, egg and larval mortality after 5 days, read-out: mortality in comparison with untreated controls
Method: Example B5: Action on Tobacco Budworm (Heliothis virescens)
For evaluating control of tobacco budworm (Heliothis virescens) the test unit consisted of 96-well-microtiter plates containing an insect diet and 15-25 H. virescens eggs.
The compounds were formulated using a solution containing 75% v/v water and 25% v/v DMSO. Different concentrations of formulated compounds were sprayed onto the insect diet at 10 μl, using a custom built micro atomizer, at two replications.
After application, microtiter plates were incubated at about 28±1° C. and about 80±5% relative humidity for 5 days. Egg and larval mortality was then visually assessed.

[3] = test system: Southern Armyworm (Spodoptera eridania), 2nd Instar Larvae; assay: Action on southern armyworm (Spodoptera eridania), 2nd instar larvae on sprayed lima bean plants; conditions: 96 h, 2nd instar larvae on lima bean plants, 4 days after treatment, read-out: mortality in comparison with untreated controls
Method: Example B7: Action on Southern Armyworm (Spodoptera eridania), 2nd Instar Larvae
The active compounds were formulated by a Tecan liquid handler in 100% cyclohexanone as a 10,000 ppm solution supplied in tubes. The 10,000 ppm solution was serially diluted in 100% cyclohexanone to make interim solutions. These served as stock solutions for which final dilutions were made by the Tecan in 50% acetone:50% water (v/v) into 10 or 20 ml glass vials. A nonionic surfactant (Kinetic®) was included in the solution at a volume of 0.01% (v/v). The vials were then inserted into an automated electrostatic sprayer equipped with an atomizing nozzle for application to plants/insects.
Lima bean plants (variety Sieva) were grown 2 plants to a pot and selected for treatment at the 1st true leaf stage. Test solutions were sprayed onto the foliage by an automated electrostatic plant sprayer equipped with an atomizing spray nozzle. The plants were dried in the sprayer fume hood and then removed from the sprayer. Each pot was placed into perforated plastic bags with a zip closure. About 10 to 11 armyworm larvae were placed into the bag and the bags zipped closed. Test plants were maintained in a growth room at about 25° C. and about 20-40% relative humidity for 4 days, avoiding direct exposure to fluorescent light (24 hour photoperiod) to prevent trapping of heat inside the bags. Mortality and reduced feeding were assessed 4 days after treatment, compared to untreated control plants.

[4] = test system: boll weevil (Anthonomus grandis); assay: Action on boll weevil (Anthonomus grandis), eggs on insect diet in microtiter plates; conditions: 120 h, egg and larval mortality after 5 days, read-out: mortality in comparison with untreated controls
Method: Example B3: Action on Boll Weevil (Anthonomus grandis)
For evaluating control of boll weevil (Anthonomus grandis) the test unit consisted of 96-well-microtiter plates containing an insect diet and 5-10 A. grandis eggs.
The compounds were formulated using a solution containing 75% v/v water and 25% v/v DMSO. Different concentrations of formulated compounds were sprayed onto the insect diet at 5 μl, using a custom built micro atomizer, at two replications.
After application, microtiter plates were incubated at about 25±1° C. and about 75±5% relative humidity for 5 days. Egg and larval mortality was then visually assessed.

[5] = test system: yellow fever mosquito (Aedes aegypti); assay: whole plant or invertebrate; conditions: 48 h, larval mortality visually assessed after 2 days, read-out: mortality in comparison with untreated controls
Method: Example B1: Action on Yellow Fever Mosquito (Aedes aegypti)
For evaluating control of yellow fever mosquito (Aedes aegypti) the test unit consisted of 96-well-microtiter plates containing 200 μl of tap water per well and 5-15 freshly hatched A. aegypti larvae.
The active compounds were formulated using a solution containing 75% (v/v) water and 25% (v/v) DMSO. Different concentrations of formulated compounds or mixtures were sprayed onto the insect diet at 2.5 μl, using a custom built micro atomizer, at two replications.
After application, microtiter plates were incubated at 28+1° C., 80+5% RH for 2 days. Larval mortality was then visually assessed.

[6] = test system: Diamond Back Moth (Plutella xylostella); assay: Action on diamond back moth (Plutella xylostella), cabbage leaf dip; conditions: foliar, 3rd instar larvae on dipped cabbage leaves, mortality 72 hours after treatment, read-out: mortality in comparison with untreated controls
Method: Example B6: Action on Diamond Back Moth (Plutella xylostella)
The active compound is dissolved at the desired concentration in a mixture of 1:1 (vol:vol) distilled water:acetone. Surfactant (Kinetic® HV) is added at a rate of 0.01% (vol/vol). The test solution is prepared at the day of use.
Leaves of cabbage were dipped in test solution and air-dried. Treated leaves were placed in petri dishes lined with moist filter paper and inoculated with ten 3rd instar larvae. Mortality was recorded 72 hours after treatment. Feeding damages were also recorded using a scale of 0-100%.

[7] = test system: Orchid thrips (Dichromothrips corbetti); assay: Action on orchid thrips (Dichromothrips corbetti), floral-immersion technique; conditions: adult thrips, mortality 72 hours after treatment, read-out: mortality in comparison with untreated controls
Method: Example B2: Action on Orchid thrips (Dichromothrips corbetti)
Dichromothrips corbetti adults used for bioassay were obtained from a colony maintained continuously under laboratory conditions. For testing purposes, the test compound is diluted in a 1:1 mixture of acetone:water (vol:vol), plus Kinetic® HV at a rate of 0.01% v/v.
Thrips potency of each compound was evaluated by using a floral-immersion technique. All petals of individual, intact orchid flowers were dipped into treatment solution and allowed to dry in Petri dishes. Treated petals were placed into individual re-sealable plastic along with about […]. All test arenas were held under continuous light and a temperature of about 28° C. for duration of the assay. After 3 days, the numbers of live thrips were counted on each petal. The percent mortality was recorded 72 hours after treatment.

CC(C)c1ccccc1NC(=S)N/N=C/c1ccc2c(C(C)Oc3ccc(OC(F)(F)F)cc3)nn(C)c2c1 (stereo not drawn) [Example C-12, 1-(2-isopropylphenyl)-3-[(E)-[1-methyl-3-[1-[4-(trifluoromethoxy)phenoxy]ethyl]indazol-6-yl]methyleneamino]thiourea]
≥ 75%: mortality at 300 ppm [1] | mortality at 800 ppm [2] | mortality at 300 ppm [3] | mortality at 800 ppm [4] | mortality at 800 ppm [5] | mortality at 500 ppm [6] | mortality at 500 ppm [7]

CC(C)c1ccccc1NC(=S)N/N=C/c1ccc2c(COc3ccc(OC(F)(F)F)cc3)nn(C)c2c1 [Example C-3, 1-(2-isopropylphenyl)-3-[(E)-[1-methyl-3-[[4-(trifluoromethoxy)phenoxy]methyl]indazol-6-yl]methyleneamino]thiourea]
≥ 75%: mortality at 300 ppm [1] | mortality at 800 ppm [2] | mortality at 300 ppm [3] | mortality at 800 ppm [4] | mortality at 800 ppm [5] | mortality at 500 ppm [6] | mortality at 500 ppm [7]

CO[C@@H]1[C@@H](OC)[C@H](C)O[C@@H](OC(=O)Nc2ccc3c(C(=O)Nc4ccc(OC(F)(F)F)cc4)nn(C)c3c2)[C@@H]1OC [Example C-6, [(2S,3R,4R,5S,6S)-3,4,5-trimethoxy-6-methyl-tetrahydropyran-2-yl] N-[1-methyl-3-[[4-(trifluoromethoxy)phenyl]carbamoyl]indazol-6-yl]carbamate]
≥ 75%: mortality at 300 ppm [1] | mortality at 800 ppm [2] | mortality at 300 ppm [3] | mortality at 800 ppm [4] | mortality at 800 ppm [5] | mortality at 500 ppm [6] | mortality at 500 ppm [7]

CC(C)c1ccccc1/N=C1\SCC(=O)N1/N=C/c1ccc2c(C(C)Oc3ccc(OC(F)(F)F)cc3)nn(C)c2c1 (stereo not drawn) [Example C-14, (2Z)-2-(2-isopropylphenyl)imino-3-[(E)-[1-methyl-3-[1-[4-(trifluoromethoxy)phenoxy]ethyl]indazol-6-yl]methyleneamino]thiazolidin-4-one]
≥ 75%: mortality at 300 ppm [1] | mortality at 800 ppm [2] | mortality at 300 ppm [3] | mortality at 800 ppm [5] | mortality at 500 ppm [6] | mortality at 500 ppm [7]

CC(C)c1ccccc1N1C(=O)CS/C1=N\N=C\c1ccc2c(C(C)Oc3ccc(OC(F)(F)F)cc3)nn(C)c2c1 (stereo not drawn) [Example C-13, (2Z)-3-(2-isopropylphenyl)-2-[(E)-[1-methyl-3-[1-[4-(trifluoromethoxy)phenoxy]ethyl]indazol-6-yl]methylenehydrazono]thiazolidin-4-one]
≥ 75%: mortality at 300 ppm [1] | mortality at 800 ppm [2] | mortality at 300 ppm [3] | mortality at 800 ppm [5] | mortality at 500 ppm [6] | mortality at 500 ppm [7]
